Experimental data: patent publication US20100267561A1, “HERBICIDAL PYRIDAZINONE DERIVATIVES” (priority 2007, published 2010)

Legend:
Format in all cases: in vivo
[1] = tested on: common (oilseed) sunflower (Helianthus annuus); assay: Test B pre-/postemergence plant response; conditions: Preemergence
How it was run: (§1)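 Seeds were sown and sprayed preemergence, while plants at 2 to 18 cm (1- to 4-leaf stage) got postemergence sprays. Compounds were formulated in a non-phytotoxic solvent mixture with surfactant. After 13 to 15 days in a greenhouse, injury was rated visually against untreated controls, 0 (no effect) to 100 (complete control).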

[2] = tested on: goosegrass (Eleusine indica); assay: Test B pre-/postemergence plant response; conditions: for Goosegrass plant response rating: 8 g ai/ha
How it was run: as §1

[3] = tested on: large crabgrass (Digitaria sanguinalis); assay: Test B pre-/postemergence plant response; conditions: for Crabgrass, Large plant response rating: 8 g ai/ha
How it was run: as §1

[4] = tested on: velvetleaf (Abutilon theophrasti); assay: Test B pre-/postemergence plant response; conditions: for Velvetleaf plant response rating: 8 g ai/ha
How it was run: as §1

[5] = tested on: giant foxtail (Setaria faberii); assay: Test B pre-/postemergence plant response; conditions: for Foxtail, Giant plant response rating: 8 g ai/ha
How it was run: as §1

[6] = tested on: pigweed (Amaranthus retroflexus); assay: Test B pre-/postemergence plant response; conditions: for Pigweed plant response rating: 8 g ai/ha
How it was run: as §1

[7] = tested on: woolly cupgrass (Eriochloa villosa); assay: Test B pre-/postemergence plant response; conditions: for Cupgrass, Woolly plant response rating: 8 g ai/ha
How it was run: as §1

wild oat (Avena fatua) = assay: Test B pre-/postemergence plant response; conditions: for Oat, Wild plant response rating: 8 g ai/ha
How it was run: as §1

[8] = tested on: eastern black (E.B.) nightshade (Solanum ptycanthum); assay: Test B pre-/postemergence plant response; conditions: Preemergence
How it was run: as §1

[9] = tested on: green foxtail (Setaria viridis); assay: Test B pre-/postemergence plant response; conditions: for Foxtail, Green plant response rating: 8 g ai/ha
How it was run: as §1

[10] = tested on: common ragweed (Ambrosia elation); assay: Test B pre-/postemergence plant response; conditions: for Ragweed plant response rating: 8 g ai/ha
How it was run: as §1

[11] = tested on: johnsongrass (Sorghum halepense); assay: Test B pre-/postemergence plant response; conditions: for Johnsongrass plant response rating: 8 g ai/ha
How it was run: as §1

[12] = tested on: ducksalad (Heteranthera limosa); assay: Test B flooded paddy test plant response
How it was run: (§2)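 Step one: raise plants to 2 leaves. Step two: flood pots 3 cm over the soil and apply compound into the water, keeping this depth. Step three: after 13–15 greenhouse days, score visually versus controls, 0–100, where 100 means complete control.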

rice (Oryza sativa) = assay: Test B flooded paddy test plant response
How it was run: as §2

[13] = 16 g ai/ha, scale 0 to 100 (0 no effect, 100 complete control)
[14] = 31 g ai/ha, scale 0 to 100 (0 no effect, 100 complete control)
[15] = Postemergence, 16 g ai/ha, scale 0 to 100
[16] = Postemergence, 31 g ai/ha, scale 0 to 100, 0 no effect, 100 complete control
[17] = Postemergence, 62 g ai/ha, scale 0 to 100, 0 no effect, 100 complete control
[18] = Preemergence, 16 g ai/ha, scale 0 to 100 (0 no effect, 100 complete control)
[19] = Preemergence, 31 g ai/ha, 0 to 100 scale, 0 no effect, 100 complete control
[20] = Preemergence, 62 g ai/ha, scale 0 to 100
[21] = Preemergence, 31 g ai/ha, scale 0 to 100 (0 no effect, 100 complete control)
[22] = Flood (flooded paddy test), 62 g ai/ha, scale 0 to 100, 0 no effect, 100 complete control
[23] = Flood (flooded paddy test), 125 g ai/ha, scale 0 to 100, 0 no effect, 100 complete control
[24] = Flood (flooded paddy test), 250 g ai/ha, scale 0 to 100, 0 no effect, 100 complete control
[25] = Flood, 31 g ai/ha, scale 0 to 100

## CCc1cc(-c2ccc(Cl)cc2)nn1-c1c(OC(=O)OC(C)C)cnn(C)c1=O [Compound 41]
[1]; [13]
  Plant response rating, Sunflower: 0
[1]; [14]
  Plant response rating, Sunflower: 0
[1]; 62 g ai/ha, scale 0 to 100
  Plant response rating, Sunflower: 0
[1]; 8 g ai/ha, scale 0 to 100
  Sunflower plant response rating: 0
[2]; postemergence, 0-100 scale
  Goosegrass plant response rating: 80
[2]; [15]
  Plant response rating, Goosegrass: 80
[2]; [16]
  Plant response rating, Goosegrass: 85
[2]; [17]
  Plant response rating, Goosegrass: 98
[2]; [18]
  Plant response rating, Goosegrass: 0
[2]; [19]
  Plant response rating, Goosegrass: 0
[2]; [20]
  Plant response rating, Goosegrass: 0
[2]; Preemergence, scale 0 to 100
  Goosegrass plant response rating: 0
[3]; postemergence, 0-100 scale
  Crabgrass, Large plant response rating: 70
[3]; [15]
  Plant response rating, Crabgrass, Large: 85
[3]; [16]
  Plant response rating, Crabgrass, Large: 100
[3]; [17]
  Plant response rating, Crabgrass, Large: 100
[3]; [18]
  Plant response rating, Crabgrass, Large: 0
[3]; [19]
  Plant response rating, Crabgrass, Large: 0
[3]; [20]
  Plant response rating, Crabgrass, Large: 20
[3]; Preemergence, scale 0 to 100
  Crabgrass, Large plant response rating: 0
[4]; postemergence, 0-100 scale
  Velvetleaf plant response rating: 0
[4]; [15]
  Plant response rating, Velvetleaf: 0
[4]; [17]
  Plant response rating, Velvetleaf: 0
[4]; [18]
  Plant response rating, Velvetleaf: 0
[4]; [21]
  Plant response rating, Velvetleaf: 0
[4]; Preemergence, 62 g ai/ha, 0 to 100 scale, 0 no effect, 100 complete control
  Plant response rating, Velvetleaf: 0
[4]; Preemergence, scale 0 to 100
  Velvetleaf plant response rating: 0
[5]; postemergence, 0-100 scale
  Foxtail, Giant plant response rating: 100
[5]; [15]
  Plant response rating, Foxtail, Giant: 100
[5]; [16]
  Plant response rating, Foxtail, Giant: 100
[5]; [17]
  Plant response rating, Foxtail, Giant: 100
[5]; [18]
  Plant response rating, Foxtail, Giant: 0
[5]; [19]
  Plant response rating, Foxtail, Giant: 0
[5]; [20]
  Plant response rating, Foxtail, Giant: 98
[5]; Preemergence, scale 0 to 100
  Foxtail, Giant plant response rating: 0
[6]; postemergence, 0-100 scale
  Pigweed plant response rating: 0
[6]; [15]
  Plant response rating, Pigweed: 0
[6]; [16]
  Plant response rating, Pigweed: 0
[6]; [17]
  Plant response rating, Pigweed: 0
[6]; [18]
  Plant response rating, Pigweed: 0
[6]; [21]
  Plant response rating, Pigweed: 0
[6]; [20]
  Plant response rating, Pigweed: 0
[6]; Preemergence, scale 0 to 100
  Pigweed plant response rating: 0
[7]; postemergence, 0-100 scale
  Cupgrass, Woolly plant response rating: 95
[7]; [15]
  Plant response rating, Cupgrass, Woolly: 100
[7]; [16]
  Plant response rating, Cupgrass, Woolly: 100
[7]; [17]
  Plant response rating, Cupgrass, Woolly: 100
[7]; [18]
  Plant response rating, Cupgrass, Woolly: 0
[7]; [19]
  Plant response rating, Cupgrass, Woolly: 0
[7]; [20]
  Plant response rating, Cupgrass, Woolly: 75
[7]; Preemergence, scale 0 to 100
  Cupgrass, Woolly plant response rating: 0
Wild oat (Avena fatua); postemergence, 0-100 scale
  Oat, Wild plant response rating: 100
Wild oat (Avena fatua); [15]
  Plant response rating, Oat, Wild: 100
Wild oat (Avena fatua); [16]
  Plant response rating, Oat, Wild: 100
Wild oat (Avena fatua); [17]
  Plant response rating, Oat, Wild: 100
Wild oat (Avena fatua); [18]
  Plant response rating, Oat, Wild: 85
Wild oat (Avena fatua); [21]
  Plant response rating, Oat, Wild: 95
Wild oat (Avena fatua); [20]
  Plant response rating, Oat, Wild: 95
Wild oat (Avena fatua); Preemergence, scale 0 to 100
  Oat, Wild plant response rating: 70
[8]; [13]
  Plant response rating, Nightshade, E. B.: 0
[8]; [14]
  Plant response rating, Nightshade, E. B.: 0
[8]; 62 g ai/ha, scale 0 to 100
  Plant response rating, Nightshade, E. B.: 0
[8]; 8 g ai/ha, scale 0 to 100
  Nightshade, E. B. plant response rating: 0
[9]; postemergence, 0-100 scale
  Foxtail, Green plant response rating: 85
[9]; [15]
  Plant response rating, Foxtail, Green: 100
[9]; [16]
  Plant response rating, Foxtail, Green: 100
[9]; [17]
  Plant response rating, Foxtail, Green: 100
[9]; [18]
  Plant response rating, Foxtail, Green: 100
[9]; [19]
  Plant response rating, Foxtail, Green: 100
[9]; [20]
  Plant response rating, Foxtail, Green: 100
[9]; Preemergence, scale 0 to 100
  Foxtail, Green plant response rating: 100
[10]; postemergence, 0-100 scale
  Ragweed plant response rating: 0
[10]; [15]
  Plant response rating, Ragweed: 0
[10]; [16]
  Plant response rating, Ragweed: 0
[10]; [17]
  Plant response rating, Ragweed: 0
[10]; [18]
  Plant response rating, Ragweed: 0
[10]; [21]
  Plant response rating, Ragweed: 0
[10]; [20]
  Plant response rating, Ragweed: 0
[10]; Preemergence, scale 0 to 100
  Ragweed plant response rating: 0
[11]; postemergence, 0-100 scale
  Johnsongrass plant response rating: 50
[11]; [15]
  Plant response rating, Johnsongrass: 50
[11]; [16]
  Plant response rating, Johnsongrass: 60
[11]; [17]
  Plant response rating, Johnsongrass: 75
[11]; [18]
  Plant response rating, Johnsongrass: 65
[11]; [19]
  Plant response rating, Johnsongrass: 70
[11]; [20]
  Plant response rating, Johnsongrass: 95
[11]; Preemergence, scale 0 to 100
  Johnsongrass plant response rating: 20
[12]; [22]
  Plant response rating, Ducksalad: 0
[12]; [23]
  Plant response rating, Ducksalad: 40
[12]; [24]
  Plant response rating, Ducksalad: 70
[12]; [25]
  Plant response rating, Ducksalad: 0
Rice (Oryza sativa); [22]
  Plant response rating, Rice: 20
Rice (Oryza sativa); [23]
  Plant response rating, Rice: 50
Rice (Oryza sativa); [24]
  Plant response rating, Rice: 80
Rice (Oryza sativa); [25]
  Plant response rating, Rice: 15
